# Patent publication USRE38551E1, “Anticonvulsant enantiomeric amino acid derivatives” (priority 1996, dated 2004)
# Where two headings read alike, the source gives them in different places. Marks after values point to notes of the source that are not given here.
# What was measured:
# [1] = system: motor impairment (rotorod test); experiment: rotorod neurologic toxicity test, mice (ip); format: in vivo; settings: mice, ip, rotorod test, at time of peak effect
# Description: Compounds were screened for anticonvulsant activity in both male albino Carthworth Farms No. 1 mice (ip route) and male albino Sprague Dawley rats [oral (po) route]. Activity was established using the electrical (maximal electroshock or MES) test. In the MES test, a drop of electrolyte solution with anesthetic (0.5% butacaine hemisulfate in 0.9% sodium chloride) was used in the eyes of the animals prior to positioning the corneal electrodes and delivery of current. […] Protection endpoints were defined as the abolition of the hind limb tonic extensor component of the induced seizure. In mice, effects of compounds on forced spontaneous motor activity were determined using the rotorod test. […] Normally under these conditions, mice maintain their balance almost indefinitely. In rats, motor impairment is assessed by observing for overt evidence of ataxia, abnormal gait and stance, and/or loss of placing response and muscle tone. In the mouse identification screening study all compounds were given at three dose levels (30, 100, 300 mg/kg) and two time periods (0.5 hours, 4 hours). Typically, in the MES seizures test one animal was tested at 30 mg/kg and 300 mg/kg, and three animals at 100 mg/kg. In the rotored toxicity test four animals were tested at 30 mg/kg, and 300 mg/kg, and eight animals at 100 mg/kg.
# The quantitative determination of the median effective (ED50) and toxic doses (TD50) was conducted at previously calculated times of peak effect. Groups of at least eight animals were tested using different doses of test compound until at least two points wee determined between 100 and 0% protection and minimal motor impairment. The dose of candidate substance required to produce the defined end-point in 50% of the animals in each test and the 95% confidence interval was calculated.
# [2] = system: Crl:CD BR Charles River rats
# Procedure: II. Five groups of Crl:CD® BR Charles River rats were each exposed to BAMP or a control substance (0.5% methylcellulose [400 Cps] aqueous solution in distilled water) according to the following dosage schedule:
# Group 1—vehicle control (10 males, 10 females), 0 mg/kg/day
# Group 2—low (10 males, 10 females), 10 mg/kg/day
# Group 3—mid low (10 males, 10 females), 30 mg/kg/day
# Group 4—mid high (10 males, 10 females), 100 mg/kg/day
# Group 5—high (10 males, 10 females), 300 mg/kg/day
# Exposure was by oral gavage, once daily, for a period of at least 30 consecutive days, after which all animals were sacrificed for pathologic evaluation.
# All animals were weighed once prior to initiation of dosing and weekly thereafter. Food-fasted (overnight) blood samples for clinical chemistry and hematology were collected at termination. Blood samples were collected from the orbital venous plexus using carbon dioxide (mixed with oxygen) as an anesthetic.
# All animals were sacrificed, at the appropriate time, by exsanguination, under barbiturate anesthesia, and all were subjected to a necropsy examination.
# Clinical observations were reviewed at necropsy, and all grossly observed abnormalities were entered directly into the computerized data collection system. Adrenals, brain with brainstem, heart, kidneys, liver, ovaries, pituitary, testes with epididymides, and thyroid with parathyroids were weighted from each animal. The pituitary and thyroid with parathyroids were weighed after fixation and all of the other organs were weighed at the time of necropsy.
# As required by the protocol, histologic evaluations were conducted on liver only from all animals of Groups 1 (control) and 5 (high). All histologic findings were entered directly into the computerized data capture system. Lesions were graded as to relative severity or degree of involvement (1=minimal, 2=slight, 3=moderate, 4=moderately severe, 5=severe). In general, minimal represents the least consistently recognizable degree of any given histoniorphologic alteration, while severe would represent the most extreme degree reasonably possible, with the other three grades occupying a continuum between the two extremes. The grades are subjective, comparative evaluations, based on morphology alone and are not intended by themselves to imply any degree of functional impairment.
# [3] = female, group 2, 10 mg/kg/day, 30 days oral
# [4] = female, group 3, 30 mg/kg/day, 30 days oral
# [5] = female, group 4, 100 mg/kg/day × 30 days oral
# [6] = female, group 4, 100 mg/kg/day, 30 days oral
# [7] = female, group 5, 300 mg/kg/day × 30 days oral
# [8] = female, group 5, 300 mg/kg/day, 30 days oral
# [9] = male, group 2, 10 mg/kg/day, 30 days oral
# [10] = male, group 3, 30 mg/kg/day, 30 days oral
# [11] = male, group 4, 100 mg/kg/day × 30 days oral
# [12] = male, group 4, 100 mg/kg/day, 30 days oral
# [13] = male, group 5, 300 mg/kg/day × 30 days oral
# [14] = male, group 5, 300 mg/kg/day, 30 days oral
smiles,measurement,setting,value
"CC(=O)NC(C)C(=O)NCc1ccccc1 (racemic) [compound 1, N-Acetyl-D,L-alanine-N′-benzylamide]","tox, TD50",[1],454 [0.5] mg/kg
"COC[C@@H](NC(C)=O)C(=O)NCc1ccccc1 [Ex. 1, 2, (R)-N-Benzyl-2-Acetamide-3-methoxypropionamide]",ESOPHAGUS (ES) NOT REMARKABLE (number of animals),[2]; [3],10
same,HEART (HT) ENLARGED (number of animals affected),[2]; [3],0
same,HEART (HT) NOT REMARKABLE (number of animals),[2]; [3],10
same,LIVER (LI) ENLARGED (number of animals affected),[2]; [3],0
same,LIVER (LI) NOT REMARKABLE (number of animals),[2]; [3],10
same,"LIVER ORGAN-TO-BODY WT, mean",[2]; [3],3.237%
same,LUNG (LU) NOT REMARKABLE (number of animals),[2]; [3],10
same,PARATHYROID (PT) NOT REMARKABLE (number of animals),[2]; [3],10
same,SPLEEN (SP) NOT REMARKABLE (number of animals),[2]; [3],10
same,"TERMINAL BODY WT, mean",[2]; [3],214.1 g
same,TRACHEA (TR) NOT REMARKABLE (number of animals),[2]; [3],10
same,ESOPHAGUS (ES) NOT REMARKABLE (number of animals),[2]; [4],10
same,HEART (HT) ENLARGED (number of animals affected),[2]; [4],0
same,HEART (HT) NOT REMARKABLE (number of animals),[2]; [4],10
same,LIVER (LI) ENLARGED (number of animals affected),[2]; [4],0
same,LIVER (LI) NOT REMARKABLE (number of animals),[2]; [4],10
same,"LIVER ORGAN-TO-BODY WT, mean",[2]; [4],3.244%
same,LUNG (LU) NOT REMARKABLE (number of animals),[2]; [4],10
same,PARATHYROID (PT) NOT REMARKABLE (number of animals),[2]; [4],10
same,SPLEEN (SP) NOT REMARKABLE (number of animals),[2]; [4],10
same,"TERMINAL BODY WT, mean",[2]; [4],207.0 g
same,TRACHEA (TR) NOT REMARKABLE (number of animals),[2]; [4],10
same,"LIVER ORGAN-TO-BODY WT, mean",[2]; [5],3.608%
same,"TERMINAL BODY WT, mean",[2]; [5],218.3 g
same,ESOPHAGUS (ES) NOT REMARKABLE (number of animals),[2]; [6],10
same,HEART (HT) ENLARGED (number of animals affected),[2]; [6],0
same,HEART (HT) NOT REMARKABLE (number of animals),[2]; [6],10
same,LIVER (LI) ENLARGED (number of animals affected),[2]; [6],0
same,LIVER (LI) NOT REMARKABLE (number of animals),[2]; [6],10
same,LUNG (LU) NOT REMARKABLE (number of animals),[2]; [6],10
same,PARATHYROID (PT) NOT REMARKABLE (number of animals),[2]; [6],10
same,SPLEEN (SP) NOT REMARKABLE (number of animals),[2]; [6],10
same,TRACHEA (TR) NOT REMARKABLE (number of animals),[2]; [6],10
same,"LIVER ORGAN-TO-BODY WT, mean",[2]; [7],3.832* %
same,"TERMINAL BODY WT, mean",[2]; [7],205.9 g
same,ESOPHAGUS (ES) NOT REMARKABLE (number of animals),[2]; [8],10
same,HEART (HT) ENLARGED (number of animals affected),[2]; [8],0
same,HEART (HT) NOT REMARKABLE (number of animals),[2]; [8],10
same,LIVER (LI) ENLARGED (number of animals affected),[2]; [8],0
same,LIVER (LI) NOT REMARKABLE (number of animals),[2]; [8],10
same,LUNG (LU) NOT REMARKABLE (number of animals),[2]; [8],10
same,PARATHYROID (PT) NOT REMARKABLE (number of animals),[2]; [8],10
same,SPLEEN (SP) NOT REMARKABLE (number of animals),[2]; [8],10
same,TRACHEA (TR) NOT REMARKABLE (number of animals),[2]; [8],10
same,ESOPHAGUS (ES) NOT REMARKABLE (number of animals),[2]; [9],10
same,HEART (HT) ENLARGED (number of animals affected),[2]; [9],0
same,HEART (HT) NOT REMARKABLE (number of animals),[2]; [9],10
same,LIVER (LI) ENLARGED (number of animals affected),[2]; [9],0
same,LIVER (LI) NOT REMARKABLE (number of animals),[2]; [9],10
same,"LIVER ORGAN-TO-BODY WT, mean",[2]; [9],3.248%
same,LUNG (LU) NOT REMARKABLE (number of animals),[2]; [9],10
same,PARATHYROID (PT) NOT REMARKABLE (number of animals),[2]; [9],10
same,SPLEEN (SP) NOT REMARKABLE (number of animals),[2]; [9],10
same,"TERMINAL BODY WT, mean",[2]; [9],342.0 g
same,TRACHEA (TR) NOT REMARKABLE (number of animals),[2]; [9],10
same,ESOPHAGUS (ES) NOT REMARKABLE (number of animals),[2]; [10],10
same,HEART (HT) ENLARGED (number of animals affected),[2]; [10],0
same,HEART (HT) NOT REMARKABLE (number of animals),[2]; [10],10
same,LIVER (LI) ENLARGED (number of animals affected),[2]; [10],0
same,LIVER (LI) NOT REMARKABLE (number of animals),[2]; [10],10
same,"LIVER ORGAN-TO-BODY WT, mean",[2]; [10],3.278%
same,LUNG (LU) NOT REMARKABLE (number of animals),[2]; [10],10
same,PARATHYROID (PT) NOT REMARKABLE (number of animals),[2]; [10],10
same,SPLEEN (SP) NOT REMARKABLE (number of animals),[2]; [10],10
same,"TERMINAL BODY WT, mean",[2]; [10],349.9 g
same,TRACHEA (TR) NOT REMARKABLE (number of animals),[2]; [10],10
same,"LIVER ORGAN-TO-BODY WT, mean",[2]; [11],3.351%
same,"TERMINAL BODY WT, mean",[2]; [11],351.5 g
same,ESOPHAGUS (ES) NOT REMARKABLE (number of animals),[2]; [12],10
same,HEART (HT) ENLARGED (number of animals affected),[2]; [12],0
same,HEART (HT) NOT REMARKABLE (number of animals),[2]; [12],10
same,LIVER (LI) ENLARGED (number of animals affected),[2]; [12],0
same,LIVER (LI) NOT REMARKABLE (number of animals),[2]; [12],10
same,LUNG (LU) NOT REMARKABLE (number of animals),[2]; [12],10
same,PARATHYROID (PT) NOT REMARKABLE (number of animals),[2]; [12],10
same,SPLEEN (SP) NOT REMARKABLE (number of animals),[2]; [12],10
same,TRACHEA (TR) NOT REMARKABLE (number of animals),[2]; [12],10
same,"LIVER ORGAN-TO-BODY WT, mean",[2]; [13],4.016* %
same,"TERMINAL BODY WT, mean",[2]; [13],358.8 g
same,ESOPHAGUS (ES) NOT REMARKABLE (number of animals),[2]; [14],10
same,HEART (HT) ENLARGED (number of animals affected),[2]; [14],0
same,HEART (HT) NOT REMARKABLE (number of animals),[2]; [14],10
same,LIVER (LI) ENLARGED (number of animals affected),[2]; [14],1
same,LIVER (LI) NOT REMARKABLE (number of animals),[2]; [14],9
same,LUNG (LU) NOT REMARKABLE (number of animals),[2]; [14],10
same,PARATHYROID (PT) NOT REMARKABLE (number of animals),[2]; [14],10
same,SPLEEN (SP) NOT REMARKABLE (number of animals),[2]; [14],10
same,TRACHEA (TR) NOT REMARKABLE (number of animals),[2]; [14],10
same,multiple of anti-convulsant dose causing no adverse histologic effects,"[2]; rats, 30 days chronic dosing",76.9
